The text below walks through data of PMC2804269 (Bioconjugate chemistry, 2009).

Bridge positions count the residues as written; N and C are the ends. Peptide text beside a SMILES is read from it. * marks the point of attachment. Benzoyl(4-F) = O=C(c1ccc(F)cc1)*

The nature of data set [1]: Biodistribution in nude mice bearing U87MG xenografts. The note with it: nude, mouse, iv, 740 KBq (20 uCi), total radioactivity, 0.5 h p.i., n = 3. The format is in vivo, mouse.
Data set [2] has as its system U87MG tumor bearing mice. The data set is described as above. The format is in vivo, mouse. The note with it: 330 μg c(RGDyK), 0.5 h p.i., P < 0.05.
Data set [3] deals with U87MG tumor bearing mice. Description: Static microPET imaging quantification. The format is in vivo, mouse. The note with it: quantification of microPET images.
Data set [4] deals with U87MG tumor bearing mice. Description: Dynamic microPET scan of U87MG tumor-bearing mouse. The format is in vivo. The note with it: 35 min p.i., ROI analysis of the heart.
For data set [5], the target named is integrin αvβ3 (Homo sapiens) (UniProt P06756). The note with it: cited from earlier work.
Data set [6] addresses αvβ3 integrin. The note with it: binding to αvβ3 integrin; cited from earlier work.

UniProt P06756, sequence (P06756 31-1048, chain 1 of 2): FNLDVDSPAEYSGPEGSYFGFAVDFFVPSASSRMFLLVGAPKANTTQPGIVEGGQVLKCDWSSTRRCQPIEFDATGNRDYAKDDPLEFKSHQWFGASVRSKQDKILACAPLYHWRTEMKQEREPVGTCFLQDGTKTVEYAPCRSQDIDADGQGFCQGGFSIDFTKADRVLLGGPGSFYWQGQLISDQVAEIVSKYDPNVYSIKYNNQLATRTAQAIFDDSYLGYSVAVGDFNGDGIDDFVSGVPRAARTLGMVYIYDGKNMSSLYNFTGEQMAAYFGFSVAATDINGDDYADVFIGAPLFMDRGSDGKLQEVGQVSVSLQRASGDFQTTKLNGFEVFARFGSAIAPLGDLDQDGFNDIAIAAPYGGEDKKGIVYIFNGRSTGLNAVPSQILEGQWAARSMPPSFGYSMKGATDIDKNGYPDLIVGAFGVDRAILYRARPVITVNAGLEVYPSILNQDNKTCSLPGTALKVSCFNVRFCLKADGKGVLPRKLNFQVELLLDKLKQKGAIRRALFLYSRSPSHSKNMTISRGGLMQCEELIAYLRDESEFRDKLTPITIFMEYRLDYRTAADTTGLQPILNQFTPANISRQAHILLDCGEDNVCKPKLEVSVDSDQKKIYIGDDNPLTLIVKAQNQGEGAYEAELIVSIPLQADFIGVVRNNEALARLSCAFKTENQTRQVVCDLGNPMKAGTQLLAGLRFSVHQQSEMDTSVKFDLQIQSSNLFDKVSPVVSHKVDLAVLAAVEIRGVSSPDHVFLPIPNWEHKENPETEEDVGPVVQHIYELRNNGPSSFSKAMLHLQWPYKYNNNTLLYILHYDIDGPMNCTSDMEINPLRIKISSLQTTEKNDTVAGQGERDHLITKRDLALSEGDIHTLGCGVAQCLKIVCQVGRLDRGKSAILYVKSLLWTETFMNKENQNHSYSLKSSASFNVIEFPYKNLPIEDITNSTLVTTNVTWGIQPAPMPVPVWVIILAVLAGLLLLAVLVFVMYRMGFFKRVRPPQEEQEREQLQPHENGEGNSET
UniProt P06756, sequence (P05106 27-788, chain 2 of 2, further chain): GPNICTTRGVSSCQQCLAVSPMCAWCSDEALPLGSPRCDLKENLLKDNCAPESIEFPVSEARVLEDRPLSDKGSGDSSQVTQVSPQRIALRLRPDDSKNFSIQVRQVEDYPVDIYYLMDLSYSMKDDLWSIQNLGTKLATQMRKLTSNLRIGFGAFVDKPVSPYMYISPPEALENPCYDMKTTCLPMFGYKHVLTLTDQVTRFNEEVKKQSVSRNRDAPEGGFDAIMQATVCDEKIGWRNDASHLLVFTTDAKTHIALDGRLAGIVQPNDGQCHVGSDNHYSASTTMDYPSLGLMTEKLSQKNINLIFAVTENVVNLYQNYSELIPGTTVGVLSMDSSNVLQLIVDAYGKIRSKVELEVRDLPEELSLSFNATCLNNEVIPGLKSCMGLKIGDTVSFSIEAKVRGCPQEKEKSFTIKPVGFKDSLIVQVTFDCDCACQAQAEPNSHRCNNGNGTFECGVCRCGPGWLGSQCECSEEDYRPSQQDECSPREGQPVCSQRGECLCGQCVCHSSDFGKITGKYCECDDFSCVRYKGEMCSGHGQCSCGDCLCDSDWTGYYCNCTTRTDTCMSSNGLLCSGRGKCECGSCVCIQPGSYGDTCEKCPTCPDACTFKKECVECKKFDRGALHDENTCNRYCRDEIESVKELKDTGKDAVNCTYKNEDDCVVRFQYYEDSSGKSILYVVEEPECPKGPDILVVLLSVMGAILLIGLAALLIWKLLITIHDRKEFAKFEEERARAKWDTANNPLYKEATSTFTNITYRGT

Broadly, the tissue uptake is the share of the injected amount in each gram of the tissue. Take `CC(C)C[C@@H]1NC(=O)[C@@H]2CSSC[C@@H](C(=O)NCC(N)=O)NC(=O)[C@H](Cc3ccccc3)NC(=O)CNC(=O)[C@H](CC(N)=O)NC(=O)[C@@H]3CCCN3C(=O)CNC(=O)[C@@H]3CSSC[C@H](NC(=O)[C@H](CO)NC(=O)[C@H]([C@@H](C)O)NC(=O)[C@@H]4CCCN4C(=O)[C@H](C)NC(=O)[C@H](Cc4c[nH]c5ccccc45)NC(=O)[C@H](CC(=O)O)NC(=O)CNC(=O)[C@H](CCCNC(=N)N)NC(=O)CNC(=O)[C@H](CCC(N)=O)NC(=O)[C@@H]4CCCN4C(=O)[C@@H](NC(=O)CNC(=O)c4ccc(F)cc4)CSSC[C@H](NC(=O)CNC(=O)[C@H](C)NC1=O)C(=O)N[C@@H](C(C)C)C(=O)N3)C(=O)N[C@@H](CO)C(=O)N[C@@H](CCC(N)=O)C(=O)N[C@@H](CC(=O)O)C(=O)N[C@@H](CO)C(=O)N[C@@H](CC(=O)O)C(=O)N2` [^18F-FB-2.5D] ({Benzoyl(4-F)}-GCPQGRGDWAPTSCSQDSDCLAGCVCGPNGFCG-NH2; disulfide 2-24, 14-26, 20-32; C-terminus assumed): the tissue uptake at 0.5 h in data set [1] (blood, blood radioactivity (biodistribution)) was 1.32 ± 0.07 %ID/g; in data set [1] (kidney, kidney uptake (biodistribution)) it was 4.24 ± 0.19 %ID/g; in data set [1] (liver, liver uptake (biodistribution)), 1.38 ± 0.55 %ID/g. For the same compound, in data set [2], the “inhibition of tumor uptake by co-injection of c(RGDyK)” value was found to be 70%. Also, in data set [3], the “activity remaining in tumor at 1 h p.i. compared to 0.5 h” value came out at 56%. Moreover, the “radioactivity in blood relative to amount at 3 min p.i.” value in data set [4] is listed as “approximately 9.2%”.

In general, Kd refers to a measure of binding affinity in units of concentration. Echistatin (from UniProt P17347): the Kd in data set [5] is 0.3 nM.

For the compound echistatin, the Kd in data set [6] is roughly 0.3 nM.
